Source: patent publication US20210322508A1, “PEPTIDES AND COMPOSITIONS FOR TARGETED TREATMENT AND IMAGING” (SIGNABLOK, INC., priority 2018, published 2021)

Test system: J774 macrophages
Test: in vitro macrophage uptake (endocytosis) of rho B-labeled peptides and lipopeptide complexes
Format: cell-based, murine
Conditions: 1 h pretreatment: 40 μM cytochalasin D, 400 μg/mL fucoidan, 10 μM BLT-1; uptake 4 h and 22 h
Protocol: In Vitro Macrophage Uptake of GF9HDL and GA/E31HDL A quantitative in vitro macrophage assay of endo-cytosis of rho B-labeled HDL-mimicking lipopeptide complexes by J774 macrophage was performed as described. (18-20) Briefly, BALB/c murine macrophage J774A.1 cells (ATCC) were cultured at 37° C. with 5% CO2 in Dulbecco's modified Eagle's medium (Cellgro Mediatech, Manassas, Va.) with 2 mM glutamine, 100 U/mL penicillin, 0.1 mg/mL streptomycin, and 10% heat-inactivated fetal bovine serum (Cellgro Mediatech) and grown to approximately 90% confluency in 12-well tissue culture plates (Corning Costar, Corning, N.Y.).
Cells were washed twice using phosphate-buffered saline and lysed using Passive Lysis Buffer (Promega, Madison, Wis.). Rho B fluorescence was measured in the lysates with 544-nm excitation and 590-nm emission filters, using a Fluoroscan Ascent CF fluorescence microplate reader (Thermo Labsystems, Vantaa, Finland). Protein concentrations in the lysates were measured using Bradford reagent (Sigma-Aldrich) and an MRX microplate reader (Dynex Technologies, Chantilly, Va.) according to the manufacturer's recommended protocol.

| Compound | effect of scavenger receptor inhibitor on macrophage uptake of GF9-HDL and GA/E31-HDL |
| --- | --- |
| C=C1[C@@H](C)[C@H]2[C@H](Cc3ccccc3)NC(=O)[C@]23[C@H](OC(C)=O)/C=C/[C@@](C)(O)C(=O)[C@@H](C)C/C=C/[C@H]3[C@@H]1O [cytochalasin D, reference compound] | significantly inhibited |
| fucoidan [reference compound] | substantially suppressed endocytosis of TREM-1 inhibitor complexes at 22 hours but not at 4 hours |
| CCCCCCC1CCCC1=NNC(N)=S (stereo not drawn) [BLT-1, Blocker of lipid transport 1, reference compound] | similarly inhibited the uptake of the complexes at both time points but to a lesser extent |
